Among the data in patent US12209087B2, “AKT1 modulators” (Alterome Therapeutics, Inc., priority 2022, dated 2025) are IC50 values, retold here.

In one assay the target is T1, full length AKT E17K (Homo sapiens, UniProt P31749, E17K).
T1 construct: host or cells: HEK-293 (ATCC CRL-1573)
T1 sequence (P31749 whole entry E17K): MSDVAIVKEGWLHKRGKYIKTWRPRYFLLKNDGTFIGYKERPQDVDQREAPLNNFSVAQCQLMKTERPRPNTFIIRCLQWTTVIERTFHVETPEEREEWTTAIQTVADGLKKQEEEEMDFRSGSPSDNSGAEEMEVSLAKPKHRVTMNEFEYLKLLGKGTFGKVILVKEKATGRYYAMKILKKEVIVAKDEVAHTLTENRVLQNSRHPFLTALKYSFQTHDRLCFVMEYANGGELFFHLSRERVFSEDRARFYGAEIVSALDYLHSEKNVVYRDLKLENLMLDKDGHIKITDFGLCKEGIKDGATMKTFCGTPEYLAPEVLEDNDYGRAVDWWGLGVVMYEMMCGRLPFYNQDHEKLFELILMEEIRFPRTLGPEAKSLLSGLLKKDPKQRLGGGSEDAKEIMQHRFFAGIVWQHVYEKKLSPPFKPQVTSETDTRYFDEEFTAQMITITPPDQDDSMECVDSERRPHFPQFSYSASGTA
Nature of the assay: NanoBRET Target Engagement (TE) Assay. It is filed as cell-based. To be noted: competitive displacement of tracer in cells, read-out: AKT1 E17K IC50. Put shortly: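 Compound and tracer incubated 2 h before luminescence at donor 450 nm and acceptor 600 nm, with extracellular signal inhibited. EC50 by sigmoidal variable-slope regression.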
A general note: BRET reads energy transfer from a luciferase to a nearby fluorophore.
A word on the IC50: it is the concentration at which inhibition is half-maximal. As for `N#Cc1nccc(NC2CCN(Cc3ccc(-n4c(-c5cccnc5N)nc5ccc(-c6ccc(=O)n(CF)c6)nc54)cc3)CC2)n1` [Example 607, 4-((1-(4-(2-(2-Aminopyridin-3-yl)-5-(1-(fluoromethyl)-6-oxo-1,6-dihydropyridin-3-yl)-3H-imidazo[4,5-b]pyridin-3-yl)benzyl)piperidin-4-yl)amino)pyrimidine-2-carbonitrile], the IC50 is 15 to 60 nM.
Same read-out and setting: as for `N#Cc1nccc(NC2CCN(Cc3ccc(-n4c(-c5cccnc5N)nc5ccc(-c6cnn(C(F)F)n6)nc54)cc3)CC2)n1` [Example 620, 4-((1-(4-(2-(2-Aminopyridin-3-yl)-5-(2-(difluoromethyl)-2H-1,2,3-triazol-4-yl)-3H-imidazo[4,5-b]pyridin-3-yl)benzyl)piperidin-4-yl)amino)pyrimidine-2-carbonitrile], the figure is less than 15 nM.
Same read-out and setting: as for `N#Cc1nccc(NC2CCN(Cc3ccc(-n4c(-c5cccnc5N)nc5ccc(Br)nc54)cc3)CC2)n1` [Example 485, 4-((1-(4-(2-(2-Aminopyridin-3-yl)-5-bromo-3H-imidazo[4,5-b]pyridin-3-yl)benzyl)piperidin-4-yl)amino)pyrimidine-2-carbonitrile], the figure is less than 15 nM; as for `CC(=O)Nc1cccc(-c2ccc3nc(-c4cccnc4N)n(-c4ccc(CN5CCC(Nc6ccnc(C#N)n6)CC5)cc4)c3n2)c1` [Example 440, N-(3-(2-(2-Aminopyridin-3-yl)-3-(4-((4-((2-cyanopyrimidin-4-yl)amino)piperidin-1-yl)methyl)phenyl)-3H-imidazo[4,5-b]pyridin-5-yl)phenyl)acetamide], less than 15 nM; as for `N#Cc1nccc(NC2CCN(Cc3ccc(-n4c(-c5cccnc5N)nc5cc(C#N)c(-c6ccc(F)cc6)nc54)cc3)CC2)n1` [Example 557, 2-(2-Aminopyridin-3-yl)-3-(4-((4-((2-cyanopyrimidin-4-yl)amino)piperidin-1-yl)methyl)phenyl)-5-(4-fluorophenyl)-3H-imidazo[4,5-b]pyridine-6-carbonitrile], less than 15 nM.
The same measure, in the same setting: the value for `N#Cc1nccc(NC2CCN(Cc3ccc(-n4c(-c5cccnc5N)nc5ccc(-c6ccncc6)nc54)cc3)CC2)n1` [Example 433, 4-((1-(4-(2-(2-Aminopyridin-3-yl)-5-(pyridin-4-yl)-3H-imidazo[4,5-b]pyridin-3-yl)benzyl)piperidin-4-yl)amino)pyrimidine-2-carbonitrile] was less than 15 nM.
For `N#Cc1nccc(NC2CCN(Cc3ccc(-n4c(-c5nccnc5N)nc5ccc(-c6cnn(CC(N)=O)n6)nc54)cc3)CC2)n1` [Example 633, 2-(4-(2-(3-aminopyrazin-2-yl)-3-(4-((4-((2-cyanopyrimidin-4-yl)amino)piperidin-1-yl)methyl)phenyl)-3H-imidazo[4,5-b]pyridin-5-yl)-2H-1,2,3-triazol-2-yl)acetamide], the 50% inhibitory concentration (IC50) is 15 to 60 nM.
Same read-out and setting: the value for `Cn1cc(-c2ccc3nc(-c4cccnc4N)n(-c4ccc(CN5CCC(Nc6ccnc(C#N)n6)CC5)cc4)c3n2)cc1C#N` [Example 481, 4-((1-(4-(2-(2-Aminopyridin-3-yl)-5-(5-cyano-1-methyl-1H-pyrrol-3-yl)-3H-imidazo[4,5-b]pyridin-3-yl)benzyl)piperidin-4-yl)amino)pyrimidine-2-carbonitrile] was less than 15 nM; that for `[2H]C([2H])(c1ccc(-n2c(-c3cccnc3N)nc3ccc(-c4ccc(F)cc4)nc32)cc1)N1CCC(Nc2ccnc(C#N)n2)CC1` [Example 489, 4-((1-((4-(2-(2-Aminopyridin-3-yl)-5-(4-fluorophenyl)-3H-imidazo[4,5-b]pyridin-3-yl)phenyl)methyl-d2)piperidin-4-yl)amino)pyrimidine-2-carbonitrile] was less than 15 nM.
On to `N#Cc1nccc(N2CCN(Cc3ccc(-n4c(-c5cccnc5N)nc5ccc(-c6ccc(Cl)cc6)nc54)cc3)CC2)n1` [Example 342, 4-(4-(4-(2-(2-Aminopyridin-3-yl)-5-(4-chlorophenyl)-3H-imidazo[4,5-b]pyridin-3-yl)benzyl)piperazin-1-yl)pyrimidine-2-carbonitrile], for which the 50% inhibitory concentration (IC50) lay within 15 to 60 nM.

Still in this assay, the particulars now being: competitive tracer displacement in living cells, read-out: AKT1 E17K IC50.
In the case of `N#Cc1cc(C(=O)NC2CCN(Cc3ccc(-n4c(-c5cccnc5N)nc5cc(-c6ccccc6)cnc54)cc3)CC2)ccn1` [Example 107, N-(1-(4-(2-(2-Aminopyridin-3-yl)-6-phenyl-3H-imidazo[4,5-b]pyridin-3-yl)benzyl)piperidin-4-yl)-2-cyanoisonicotinamide], the IC50 was in the range of 600 to 10000 nM.
On the same count and under the same terms, as for `N#Cc1ncnc(N[C@H]2CCCN(Cc3ccc(-n4c(-c5cccnc5N)nc5ccc(-c6ccccc6)nc54)cc3)C2)n1` [Example 224, (S)-4-((1-(4-(2-(2-Aminopyridin-3-yl)-5-phenyl-3H-imidazo[4,5-b]pyridin-3-yl)benzyl)piperidin-3-yl)amino)-1,3,5-triazine-2-carbonitrile], the figure is less than 15 nM.
Same read-out and setting: the value for `N#Cc1ccc(C(=O)N2CCN(Cc3ccc(-n4c(-c5cccnc5N)nc5cc(-c6ccccc6)cnc54)cc3)CC2)cn1` [Example 111, 5-(4-(4-(2-(2-Aminopyridin-3-yl)-6-phenyl-3H-imidazo[4,5-b]pyridin-3-yl)benzyl)piperazine-1-carbonyl)picolinonitrile] was 600 to 10000 nM.
Still for that read-out and setting: as for `N#Cc1ccc(-c2ccc3nc(-c4cccnc4N)n(-c4ccc(CN5CCN(c6ccnc(C#N)n6)CC5)cc4)c3n2)cc1` [Example 294, 4-(4-(4-(2-(2-Aminopyridin-3-yl)-5-(4-cyanophenyl)-3H-imidazo[4,5-b]pyridin-3-yl)benzyl)piperazin-1-yl)pyrimidine-2-carbonitrile], the figure is 15 to 60 nM; as for `N#Cc1ccc(NC2CCN(Cc3ccc(-n4c(-c5cccnc5N)nc5cccnc54)cc3)CC2)cn1` [Example 157, 5-((1-(4-(2-(2-aminopyridin-3-yl)-3H-imidazo[4,5-b]pyridin-3-yl)benzyl)piperidin-4-yl)amino)picolinonitrile], 600 to 10000 nM; as for `N#Cc1cc(N2CCN(Cc3ccc(-n4c(-c5cccnc5N)nc5ccc(-c6ccccc6F)nc54)cc3)CC2)ncn1` [Example 314, 6-(4-(4-(2-(2-Aminopyridin-3-yl)-5-(2-fluorophenyl)-3H-imidazo[4,5-b]pyridin-3-yl)benzyl)piperazin-1-yl)pyrimidine-4-carbonitrile], less than 15 nM.
For the compound `N#Cc1cc(N2CCN(Cc3ccc(-n4c(-c5cccnc5N)nc5ccc(C6CC6)nc54)cc3)CC2)ncn1` [Example 290, 6-(4-(4-(2-(2-Aminopyridin-3-yl)-5-cyclopropyl-3H-imidazo[4,5-b]pyridin-3-yl)benzyl)piperazin-1-yl)pyrimidine-4-carbonitrile], the 50% inhibitory concentration (IC50) lay in the range of 15 to 60 nM.
Same read-out and setting: the value for `C[C@H]1CN(Cc2ccc(-n3c(-c4cccnc4N)nc4ccc(-c5ccccc5)nc43)cc2)CCN1c1ncnc(C#N)n1` [Example 274, (S)-4-(4-(4-(2-(2-Aminopyridin-3-yl)-5-phenyl-3H-imidazo[4,5-b]pyridin-3-yl)benzyl)-2-methylpiperazin-1-yl)-1,3,5-triazine-2-carbonitrile] was 15 to 60 nM; that for `N#Cc1cnnc(NC2CCN(Cc3ccc(-n4c(-c5cccnc5N)nc5ccc(-c6ccccc6)nc54)cc3)CC2)c1` [Example 54, 6-((1-(4-(2-(2-Aminopyridin-3-yl)-5-phenyl-3H-imidazo[4,5-b]pyridin-3-yl)benzyl)piperidin-4-yl)amino)pyridazine-4-carbonitrile] was 60 to 600 nM.
The same measure, in the same setting: as for `N#Cc1nccc(N2CCN(Cc3ccc(-n4c(-c5cccnc5N)nc5ccc(-c6ccccc6)nc54)cc3)CC2)n1` [Example 49, 4-(4-(4-(2-(2-Aminopyridin-3-yl)-5-phenyl-3H-imidazo[4,5-b]pyridin-3-yl)benzyl)piperazin-1-yl)pyrimidine-2-carbonitrile], the figure is less than 15 nM.
The same measure, in the same setting: as for `N#Cc1ccncc1C(=O)NC1CCN(Cc2ccc(-n3c(-c4cccnc4N)nc4ccc(-c5ccccc5)nc43)cc2)CC1` [Example 60, N-(1-(4-(2-(2-Aminopyridin-3-yl)-5-phenyl-3H-imidazo[4,5-b]pyridin-3-yl)benzyl)piperidin-4-yl)-4-cyanonicotinamide], the figure is less than 15 nM; as for `N#Cc1ccnc(OC2CCN(Cc3ccc(-n4c(-c5cccnc5N)nc5cccnc54)cc3)CC2)c1` [Example 5, 2-((1-(4-(2-(2-aminopyridin-3-yl)-3H-imidazo[4,5-b]pyridin-3-yl)benzyl)piperidin-4-yl)oxy)isonicotinonitrile], 600 to 10000 nM.
In the case of `N#Cc1nccc(C(=O)NC2CCN(Cc3ccc(-n4c(-c5cccnc5N)nc5ccc(-c6ccccc6)nc54)cc3)CC2)n1` [Example 151, N-(1-(4-(2-(2-Aminopyridin-3-yl)-5-phenyl-3H-imidazo[4,5-b]pyridin-3-yl)benzyl)piperidin-4-yl)-2-cyanopyrimidine-4-carboxamide], the IC50 was less than 15 nM.
Same read-out and setting: as for `N#Cc1ccnc(OC2CCN(Cc3ccc(-n4c(-c5cccnc5N)nc5cc(-c6ccccc6)cnc54)cc3)CC2)c1` [Example 11, 2-((1-(4-(2-(2-Aminopyridin-3-yl)-6-phenyl-3H-imidazo[4,5-b]pyridin-3-yl)benzyl)piperidin-4-yl)oxy)isonicotinonitrile], the figure is 600 to 10000 nM.
Still for that read-out and setting: the value for `N#Cc1nccc(NC2CCN(Cc3ccc(-n4c(-c5cccnc5N)nc5ccc(C6CCC6)nc54)cc3)CC2)n1` [Example 262, 4-((1-(4-(2-(2-aminopyridin-3-yl)-5-cyclobutyl-3H-imidazo[4,5-b]pyridin-3-yl)benzyl)piperidin-4-yl)amino)pyrimidine-2-carbonitrile] was less than 15 nM; that for `N#Cc1nccc(N2CC3CCC2CN3Cc2ccc(-n3c(-c4cccnc4N)nc4ccc(-c5ccccc5)nc43)cc2)n1` (centres unmarked) [Example 219, 4-(5-(4-(2-(2-Aminopyridin-3-yl)-5-phenyl-3H-imidazo[4,5-b]pyridin-3-yl)benzyl)-2,5-diazabicyclo[2.2.2]octan-2-yl)pyrimidine-2-carbonitrile] was less than 15 nM.
